We go through one molecule from article doi:10.1101/2025.06.13.659494v2, “A cell-based degrader assessment platform facilitates discovery of functional NUDT5 PROTACs” (biorxiv, 2026).

Molecules are shown by their SMILES.

This assay has as its target T1, NUDT5 (purified) (Homo sapiens, UniProt Q9UKK9).
T1 construct: homodimer
Briefly: enzyme-coupled malachite green assay. It counts as biochemical. The note with it: […] ADP-ribose, pH […] Mg acetate, […] °C.

With `COc1cc(-c2nnc(Cn3c(N4CCNCC4)nc4c3c(=O)n(C)c(=O)n4C)o2)ccc1C` [TH10184], the IC50 entry was “TH10184 showed comparable biochemical inhibition and thermal shift to TH5427”.
